Test results: the supplement of paper PMC10307832

Legend:
Assay in all cases: relative viability (nuclei count vs DMSO), 5 days (fraction); higher = more cells survive
[1] = compound: CC1=CC=C(C=C1)C(=O)CN2C3=C(CCCC3)SC2=N [Pifithrin_alpha] + Cc1cc(Nc2cc(N3CCN(C)CC3)nc(Sc3ccc(NC(=O)C4CC4)cc3)n2)n[nH]1 [Tozasertib] (partner 0.1 µM)
Summary of the method: (§1)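 Nuclei were stained with Hoechst during a one-step fixation (final 0.05% Triton X-100, 1% formaldehyde, 1 ug/ml Hoechst) carried out 5 days after dosing, then counted on 4× images. The cells, lung cancer lines in 1536-well plates, had been dosed by pin tool the day after seeding with one drug alone or a fixed anchor-drug dose plus five library-drug doses (not always all listed) in √10 steps. Relative viability is the nuclei count in treated wells divided by that in vehicle wells, and each value is the median of duplicate plates.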

Bemcentinib + Linsitinib = compound: Nc1nc(Nc2ccc3c(c2)CC[C@@H](N2CCCC2)CC3)nn1-c1cc2c(nn1)-c1ccccc1CCC2 [Bemcentinib] + C[C@]1(O)C[C@@H](c2nc(-c3ccc4ccc(-c5ccccc5)nc4c3)c3c(N)nccn32)C1 [Linsitinib] (partner 1 µM)
Summary of the method: as §1

Axitinib + OSI-027 = compound: CNC(=O)c1ccccc1Sc1ccc2c(/C=C/c3ccccn3)n[nH]c2c1 [Axitinib] + COc1cccc2cc(-c3nc([C@H]4CC[C@H](C(=O)O)CC4)n4ncnc(N)c34)[nH]c12 [OSI-027] (partner 0.5 µM)
Summary of the method: as §1

Bemcentinib + Decitabine = compound: Nc1nc(Nc2ccc3c(c2)CC[C@@H](N2CCCC2)CC3)nn1-c1cc2c(nn1)-c1ccccc1CCC2 [Bemcentinib] + Nc1ncn([C@H]2C[C@H](O)[C@@H](CO)O2)c(=O)n1 [Decitabine] (partner 2 µM)
Summary of the method: as §1

| Cell Line | relative viability ([1]; first compound 1 µM) | relative viability ([1]; first compound 3.162 µM) | relative viability ([1]; first compound 10 µM) | relative viability ([1]; first compound 31.62 µM) | relative viability ([1]; first compound 100 µM) | relative viability (Bemcentinib + Linsitinib; first compound 0.04 µM) | relative viability (Bemcentinib + Linsitinib; first compound 0.1265 µM) | relative viability (Bemcentinib + Linsitinib; first compound 0.4 µM) | relative viability (Bemcentinib + Linsitinib; first compound 1.265 µM) | relative viability (Bemcentinib + Linsitinib; first compound 4 µM) | relative viability (Axitinib + OSI-027; first compound 0.005 µM) | relative viability (Axitinib + OSI-027; first compound 0.01581 µM) | relative viability (Axitinib + OSI-027; first compound 0.05 µM) | relative viability (Axitinib + OSI-027; first compound 0.1581 µM) | relative viability (Axitinib + OSI-027; first compound 0.5 µM) | relative viability (Bemcentinib + Decitabine; first compound 0.04 µM) | relative viability (Bemcentinib + Decitabine; first compound 0.1265 µM) | relative viability (Bemcentinib + Decitabine; first compound 0.4 µM) | relative viability (Bemcentinib + Decitabine; first compound 1.265 µM) | relative viability (Bemcentinib + Decitabine; first compound 4 µM) |
| --- | --- | --- | --- | --- | --- | --- | --- | --- | --- | --- | --- | --- | --- | --- | --- | --- | --- | --- | --- | --- |
| RERF-LC-KJ | 0.498 | 0.412 | 0.308 | 0.253 | 0.289 | 0.918 | 0.921 | 0.886 | 0.849 | 1 | 0.701 | 0.529 | 0.553 | 0.503 | 0.61 | 0.676 | 0.729 | 0.784 | 0.855 | 0.752 |
| NCI-H2228 | 0.247 | 0.147 | 0.209 | 0.154 | 0.135 | – | 0.627 | 0.733 | 0.585 | 1.11 | 0.518 | 0.611 | 0.716 | 0.532 | 0.659 | – | – | – | – | – |
| A549 | – | – | – | – | – | 0.655 | 0.657 | 0.659 | 0.677 | 0.622 | – | – | – | – | – | 0.248 | 0.247 | 0.319 | 0.296 | 0.26 |
| NCI-H358 | 0.112 | 0.0941 | 0.101 | 0.104 | 0.0923 | 0.77 | 0.795 | 0.788 | 0.668 | 0.796 | 0.785 | 0.737 | 0.874 | 0.681 | 1.02 | 0.202 | 0.209 | 0.211 | 0.212 | 0.263 |
| NCI-H2342 | 0.514 | 0.486 | 0.494 | 0.453 | 0.454 | – | – | – | – | – | 0.571 | 0.614 | 0.663 | 0.633 | 0.638 | 0.746 | 0.768 | 0.771 | 0.73 | 0.827 |
| A-427 | 0.202 | 0.18 | 0.183 | 0.203 | 0.2 | – | 1.14 | 1.07 | 1.14 | 1.14 | 0.422 | 0.329 | 0.442 | 0.434 | 0.486 | 0.569 | 0.525 | 0.502 | 0.57 | 0.559 |
| NCI-H2126 | 0.568 | 0.772 | 0.602 | 0.596 | 0.432 | 0.706 | 0.693 | 0.659 | 0.76 | 0.781 | 0.685 | 0.766 | 0.733 | 0.643 | 0.667 | 0.582 | 0.588 | 0.601 | 0.634 | 0.557 |
| ChaGo-K-1 | 0.218 | 0.219 | 0.204 | 0.226 | 0.192 | – | – | – | – | – | 0.547 | 0.505 | 0.67 | 0.554 | 0.591 | 0.566 | 0.537 | 0.538 | 0.536 | 0.556 |
